Data on 27 substances can be found in US9988635B2, “Modulation of growth hormone receptor expression and insulin-like growth factor expression” (Antisense Therapeutics Limited, priority 2003, dated 2018).

In the oligonucleotide strings, read from the 5' end, every base follows the letter of its sugar. An asterisk marks phosphorothioate; unmarked linkages are phosphodiester. Other units and linkages are bracketed, terminal groups are in braces. A string of capitals states the bases alone. e = 2'-O-(2-methoxyethyl) (MOE); [5mC] = 5-methylcytosine; d = 2'-deoxy (DNA)

The subject of series [1] is mouse growth hormone receptor mRNA. The series is described as follows: Inhibition of mouse growth hormone receptor mRNA levels in b.END cells, quantitative real-time PCR, incl. dose-response. It is filed as cell-based. The following applies: averages from three experiments. As to the method:
The mouse brain endothelial cell line b.END was obtained from Dr. Werner Risau at the Max Plank Instititute (Bad Nauheim, Germany). b.END cells were routinely cultured in DMEM, high glucose (Gibco/Life Technologies, Gaithersburg, Md.) supplemented with 10% fetal calf serum (Gibco/Life Technologies, Gaithersburg, Md.). Cells were routinely passaged by trypsinization and dilution when they reached 90% confluence. Cells were seeded into 96-well plates (Falcon-Primaria #3872) at a density of 3000 cells/well for use in RT-PCR analysis.
(§1) When cells reached 65-75% confluency, they were treated with oligonucleotide. For cells grown in 96-well plates, wells were washed once with 100 μL OPTI-MEM™-1 reduced-serum medium (Invitrogen Corporation, Carlsbad, Calif.) and then treated with 130 μL of OPTI-MEM™-1 containing 3.75 μg/mL LIPOFECTIN™ (Invitrogen Corporation, Carlsbad, Calif.) and the desired concentration of oligonucleotide. Cells are treated and data are obtained in triplicate. After 4-7 hours of treatment at 37° C., the medium was replaced with fresh medium. Cells were harvested 16-24 hours after oligonucleotide treatment.
(§2) Total RNA was isolated using an RNEASY 96™ kit and buffers purchased from Qiagen Inc. (Valencia, Calif.) following the manufacturer's recommended procedures. Briefly, for cells grown on 96-well plates, growth medium was removed from the cells and each well was washed with 200 μL cold PBS. 150 μL Buffer RLT was added to each well and the plate vigorously agitated for 20 seconds. 150 μL of 70% ethanol was then added to each well and the contents mixed by pipetting three times up and down. The samples were then transferred to the RNEASY 96™ well plate attached to a QIAVAC™ manifold fitted with a waste collection tray and attached to a vacuum source. Vacuum was applied for 1 minute. 500 μL of Buffer RW1 was added to each well of the RNEASY 96™ plate and incubated for 15 minutes and the vacuum was again applied for 1 minute. An additional 500 μL of Buffer RW1 was added to each well of the RNEASY 96™ plate and the vacuum was applied for 2 minutes. 1 mL of Buffer RPE was then added to each well of the RNEASY 96™ plate and the vacuum applied for a period of 90 seconds. The Buffer RPE wash was then repeated and the vacuum was applied for an additional 3 minutes. The plate was then removed from the QIAVAC™ manifold and blotted dry on paper towels. The plate was then re-attached to the QIAVAC™ manifold fitted with a collection tube rack containing 1.2 mL collection tubes. RNA was then eluted by pipetting 140 μL of RNAse free water into each well, incubating 1 minute, and then applying the vacuum for 3 minutes.
(§3) Quantitation of growth hormone receptor mRNA levels was accomplished by real-time quantitative PCR using the ABI PRISM™ 7600, 7700, or 7900 Sequence Detection System (PE-Applied Biosystems, Foster City, Calif.) according to manufacturer's instructions. This is a closed-tube, non-gel-based, fluorescence detection system which allows high-throughput quantitation of polymerase chain reaction (PCR) products in real-time. As opposed to standard PCR in which amplification products are quantitated after the PCR is completed, products in real-time quantitative PCR are quantitated as they accumulate. This is accomplished by including in the PCR reaction an oligonucleotide probe that anneals specifically between the forward and reverse PCR primers, and contains two fluorescent dyes. A reporter dye (e.g., FAM or JOE, obtained from either PE-Applied Biosystems, Foster City, Calif., Operon Technologies Inc., Alameda, Calif. or Integrated DNA Technologies Inc., Coralville, Iowa) is attached to the 5′ end of the probe and a quencher dye (e.g., TAMRA, obtained from either PE-Applied Biosystems, Foster City, Calif., Operon Technologies Inc., Alameda, Calif. or Integrated DNA Technologies Inc., Coralville, Iowa) is attached to the 3′ end of the probe. […]
For orientation: Quantitative PCR measures a nucleic acid by following its amplification.

The subject of series [2] is human growth hormone receptor mRNA. As to the kind of experiment: Inhibition of human growth hormone receptor mRNA levels in MCF7 cells, quantitative real-time PCR. It is filed as cell-based. On the set-up: concentration or dose not given beside the values. The note with it: averages from three experiments. As for the experimental part:
The human breast carcinoma cell line MCF-7 was obtained from the American Type Culture Collection (Manassas, Va.). MCF-7 cells were routinely cultured in DMEM low glucose (Gibco/Life Technologies, Gaithersburg, Md.) supplemented with 10% fetal calf serum (Gibco/Life Technologies, Gaithersburg, Md.). Cells were routinely passaged by trypsinization and dilution when they reached 90% confluence. Cells were seeded into 96-well plates (Falcon-Primaria #3872) at a density of 7000 cells/well for use in RT-PCR analysis.
as §1, §2
as §3, with “probe. When the probe and dyes are intact, reporter dye emission is quenched by the proximity of the 3′ quencher dye.” for “probe.”

“227466 (antisense eT*eT*eG*eT*eA*dG*dT*dT*dA*dT*d[5mC]*dA*dT*dG*dA*eA*eT*eG*e[5mC]*e[5mC]) [compound 227466]”: in series [1], the “% INHIB of mouse growth hormone receptor mRNA levels” value turned out to be 50%.

“227485 (antisense e[5mC]*eG*eT*eG*eG*dT*dG*dT*dA*dG*dT*d[5mC]*dT*dG*dG*eG*eA*e[5mC]*eA*eG) [compound 227485]”: the “% INHIB of mouse growth hormone receptor mRNA levels” value in series [1] worked out at 45%.

On to “227516 (antisense eT*eT*eG*eG*e[5mC]*dT*dT*dT*d[5mC]*d[5mC]*d[5mC]*dT*dG*dG*dA*eG*eG*eT*eT*e[5mC]) [compound 227516]”, for which the “% INHIB of mouse growth hormone receptor mRNA levels” value in series [1] is on record as 57%.

Regarding “227504 (antisense eT*eA*e[5mC]*e[5mC]*eT*dG*dA*dG*dA*d[5mC]*d[5mC]*d[5mC]*d[5mC]*dG*d[5mC]*eG*e[5mC]*eA*eG*e[5mC]) [compound 227504]”, in series [1], the “% INHIB of mouse growth hormone receptor mRNA levels” value was 34%.

As for “227506 (antisense e[5mC]*e[5mC]*eT*e[5mC]*e[5mC]*dA*dG*dT*dA*d[5mC]*d[5mC]*dT*d[5mC]*dG*dG*eA*eG*eT*eT*eT) [compound 227506]”, the “% INHIB of mouse growth hormone receptor mRNA levels” value in series [1] amounted to 69%.

On to “227518 (antisense e[5mC]*eA*e[5mC]*eG*eG*d[5mC]*dT*dT*dA*d[5mC]*d[5mC]*dT*dA*dT*dT*eT*e[5mC]*eG*eT*e[5mC]) [compound 227518]”, for which the “% INHIB of mouse growth hormone receptor mRNA levels” value in series [1] is recorded as 6%.

Take “227474 (antisense eT*eG*eT*e[5mC]*eG*d[5mC]*dT*dT*dA*d[5mC]*dT*dT*dG*dG*dG*e[5mC]*eA*eT*eA*eA) [compound 227474]”: the “% INHIB of mouse growth hormone receptor mRNA levels” value in series [1] was determined as 68%.

Regarding “227517 (antisense e[5mC]*eT*eT*e[5mC]*eA*d[5mC]*dT*dA*dA*d[5mC]*d[5mC]*dT*dT*dG*d[5mC]*eA*eG*e[5mC]*eT*eT) [compound 227517]”, the “% INHIB of mouse growth hormone receptor mRNA levels” value in series [1] was 63%.

In the case of “227519 (antisense eT*e[5mC]*eA*e[5mC]*eA*d[5mC]*d[5mC]*dT*dA*d[5mC]*d[5mC]*dT*dT*dT*dG*e[5mC]*eT*eG*e[5mC]*eT) [compound 227519]”, the “% INHIB of mouse growth hormone receptor mRNA levels” value in series [1] amounted to 44%.

With “227486 (antisense e[5mC]*eG*eG*eT*eG*dT*dG*dA*dA*d[5mC]*d[5mC]*dG*dT*dG*dG*eT*eG*eT*eA*eG) [compound 227486]”, in series [1], the “% INHIB of mouse growth hormone receptor mRNA levels” value is on record as 39%.

In the case of “227461 (antisense eT*eG*e[5mC]*eT*eA*d[5mC]*dT*d[5mC]*d[5mC]*dA*dA*dA*dT*dA*dT*eT*e[5mC]*e[5mC]*eA*eA) [compound 227461]”, in series [1], the “% INHIB of mouse growth hormone receptor mRNA levels” value is listed as 75%.

As to “227459 (antisense e[5mC]*eT*eG*eA*eA*d[5mC]*dT*d[5mC]*dG*d[5mC]*dT*dG*dT*dA*d[5mC]*eT*eT*eT*eT*e[5mC]) [compound 227459]”, in series [1], the “% INHIB of mouse growth hormone receptor mRNA levels” value came to 60%.

Take “227514 (antisense eA*eT*eG*e[5mC]*eT*d[5mC]*dA*d[5mC]*dG*dT*d[5mC]*dA*dG*d[5mC]*dT*eA*eT*eT*eG*eG) [compound 227514]”: the “% INHIB of mouse growth hormone receptor mRNA levels” value in series [1] is recorded as 43%.

Turning to “227494 (antisense e[5mC]*eA*eA*eA*eA*dG*d[5mC]*d[5mC]*dA*d[5mC]*d[5mC]*dT*dG*dA*dT*eT*eG*eT*eT*eT) [compound 227494]”, the “% INHIB of mouse growth hormone receptor mRNA levels” value in series [1] was found to be 56%.

On to “227497 (antisense eT*eA*eA*eA*eT*dG*dT*dT*dT*dT*dG*d[5mC]*dA*dT*dA*eT*e[5mC]*e[5mC]*eA*eA) [compound 227497]”, for which the “% INHIB of mouse growth hormone receptor mRNA levels” value in series [1] is recorded as 77%.

For the substance “227455 (antisense eA*eG*eT*eA*eG*dG*dG*dT*dA*dT*d[5mC]*d[5mC]*dA*dA*dA*eT*eG*eG*eA*eG) [compound 227455]”, in series [1], the “% INHIB of mouse growth hormone receptor mRNA levels” value worked out at 43%.

Take “227460 (antisense eA*eA*e[5mC]*eT*eG*dG*dA*dT*dA*dT*d[5mC]*dT*dT*d[5mC]*dT*eT*e[5mC]*eA*e[5mC]*eA) [compound 227460]”: in series [1], the “% INHIB of mouse growth hormone receptor mRNA levels” value came out at 43%.

As to “227445 (antisense eT*eA*e[5mC]*e[5mC]*eT*dG*dA*dG*dA*d[5mC]*d[5mC]*dT*d[5mC]*dG*dG*eA*eG*eT*eT*eT) [compound 227445]”, in series [1], the “% INHIB of mouse growth hormone receptor mRNA levels” value is listed as 69%.

Turning to “272309 (antisense eT*eA*eA*e[5mC]*eA*dG*d[5mC]*dT*dG*dT*dT*dT*dT*d[5mC]*d[5mC]*e[5mC]*e[5mC]*eA*eG*e[5mC]) [compound 272309]”, the “% INHIB of human growth hormone receptor mRNA levels” value in series [2] was 85%.

Take “272303 (antisense e[5mC]*e[5mC]*eA*eG*eA*dG*dA*dT*d[5mC]*d[5mC]*dA*dT*dA*d[5mC]*d[5mC]*eT*eG*eT*eA*eG) [compound 272303]”: the “% INHIB of human growth hormone receptor mRNA levels” value in series [2] is listed as 55%.

Take “272331 (antisense e[5mC]*eA*eG*eT*e[5mC]*dG*d[5mC]*dA*dT*dT*dG*dA*dG*dT*dA*eT*eG*eA*eG*eG) [compound 272331]”: the “% INHIB of human growth hormone receptor mRNA levels” value in series [2] amounted to 67%.

Turning to “227483 (antisense eA*eG*eG*e[5mC]*eT*dT*dT*d[5mC]*dT*dG*dT*dG*dG*dT*dG*eA*eT*eG*eT*eA) [compound 227483]”, the “% INHIB of human growth hormone receptor mRNA levels” value in series [2] is recorded as 75%.

Consider “272356 (antisense eA*eT*eG*eG*eA*dG*dG*d[5mC]*dT*dG*dG*dA*dG*dG*dT*eT*e[5mC]*eA*eA*eA) [compound 272356]”, for which, in series [2], the “% INHIB of human growth hormone receptor mRNA levels” value is 63%.

Consider “272330 (antisense eG*eA*eT*eG*e[5mC]*dA*d[5mC]*dT*dT*dT*dT*dT*dG*dG*d[5mC]*eA*eT*e[5mC]*eT*eG) [compound 272330]”, for which the “% INHIB of human growth hormone receptor mRNA levels” value in series [2] came out at 47%.

“272333 (antisense eG*eT*eG*e[5mC]*eT*d[5mC]*dA*d[5mC]*dA*dT*dA*dG*d[5mC]*d[5mC]*dA*e[5mC]*eA*eT*eG*eA) [compound 272333]”: in series [2], the “% INHIB of human growth hormone receptor mRNA levels” value was 72%.

Take “272357 (antisense eT*eA*eG*eG*eG*dT*d[5mC]*d[5mC]*dA*dT*d[5mC]*dT*dT*dT*d[5mC]*eA*eA*eG*eA*e[5mC]) [compound 272357]”: the “% INHIB of human growth hormone receptor mRNA levels” value in series [2] is recorded as 62%.

In the case of “272328 (antisense eG*eG*e[5mC]*eA*eT*dT*dG*dT*d[5mC]*d[5mC]*dA*dT*dA*dA*dG*eG*eA*eA*eG*eT) [compound 272328]”, in series [2], the “% INHIB of human growth hormone receptor mRNA levels” value is recorded as 85%.
